Assay results reported in patent US6914045B2, “Glycopeptide antibiotics” (Wyeth Holdings Corporation, priority 2001, dated 2005).
In brackets after ≈: the same amount, converted by molar mass.

Columns and labels:
Assay in all cases: in vitro antibacterial evaluation, MIC by broth dilution
Assay type in all cases: cell-based
Staphylococcus sp. = conditions: broth dilution, 18 hours at 35° C.
How it was run: (§1)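 Broth dilution per NCCLS M7-A2 in Mueller-Hinton II medium, inoculum 5×10^5 CFU/mL, antibiotic range 64-0.06 μg/mL. MIC taken as lowest concentration inhibiting growth; Gram-positive panel includes recent clinical isolates resistant to methicillin, penicillin and/or vancomycin.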

Enterococcus sp. = conditions: broth dilution, 18 hours at 35° C.
How it was run: as §1

Streptococcus sp. = conditions: broth dilution, 18 hours at 35° C.
How it was run: as §1

Escherichia coli = conditions: 18 hours at 35° C.
How it was run: as §1

## CC(c1ccccc1)C1NC(=O)CNC(=O)C(CO)NC(=O)C(C(O)C2CNC(=N)N2C2OC(CO)C(O)C(O)C2O)NC(=O)C(C(O)C2CNC(=N)N2)NC(=O)C(Cc2ccc(OC3OC(CO)C(OC4OC5COC(c6cccc(O)c6)OC5C(O)C4O)C(O)C3O)cc2)NC1=O (stereo not drawn) [Example 136, Cyclo[glycyl-β-methylphenylalanyl-O-[4-O-[4,6-O-(3-hydroxybenzylidene)hexopyranosyl]-hexopyranosyl]tyrosyl-3-(2-iminoimidazolidin-4-yl)seryl-3-(3-hexopyranosyl-2-iminoimidazolidin-4-yl)serylseryl]]
Staphylococcus sp.
  MIC Staphylococcus aureus (ATCC 29213): 16 µg/mL (≈ 11.4 µM)
  MIC Staphylococcus aureus (GC 1131): 16 µg/mL (≈ 11.4 µM)
  MIC Staphylococcus aureus (GC 3051): 16 µg/mL (≈ 11.4 µM)
  MIC Staphylococcus aureus (GC 3053): 32 µg/mL (≈ 22.9 µM)
  MIC Staphylococcus aureus (GC 4541): 8 µg/mL (≈ 5.72 µM)
  MIC Staphylococcus aureus (GC 4542): 16 µg/mL (≈ 11.4 µM)
  MIC Staphylococcus aureus (GC 4544): 16 µg/mL (≈ 11.4 µM)
  MIC Staphylococcus aureus (GC 4545): 16 µg/mL (≈ 11.4 µM)
Staphylococcus sp.; inoculum 5×10^5 CFU/mL, strain GC 1131
  MIC Staphylococcus aureus (GC 1131): 16 µg/mL (≈ 11.4 µM)
Staphylococcus sp.; strain ATCC 29213
  MIC Staphylococcus aureus (ATCC 29213): 16 µg/mL (≈ 11.4 µM)
Staphylococcus sp.; strain GC 3051
  MIC Staphylococcus aureus (GC 3051): 16 µg/mL (≈ 11.4 µM)
Staphylococcus sp.; strain GC 3053
  MIC Staphylococcus aureus (GC 3053): 32 µg/mL (≈ 22.9 µM)
Staphylococcus sp.; strain GC 4541
  MIC Staphylococcus aureus (GC 4541): 8 µg/mL (≈ 5.72 µM)
Staphylococcus sp.; strain GC 4542
  MIC Staphylococcus aureus (GC 4542): 16 µg/mL (≈ 11.4 µM)
Staphylococcus sp.; strain GC 4543
  MIC Staphylococcus aureus-SMITH (GC 4543): 16 µg/mL (≈ 11.4 µM)
Staphylococcus sp.; strain GC 4544
  MIC Staphylococcus aureus (GC 4544): 16 µg/mL (≈ 11.4 µM)
Staphylococcus sp.; strain GC 4545
  MIC Staphylococcus aureus (GC 4545): 16 µg/mL (≈ 11.4 µM)
Staphylococcus sp.; strain GC 4546
  MIC Staphylococcus haemolyticus (GC 4546): 16 µg/mL (≈ 11.4 µM)
Staphylococcus sp.; strain GC 4547
  MIC Coagulase Negative Staphylococcus (GC 4547): 8 µg/mL (≈ 5.72 µM)
Staphylococcus sp.; strain GC 4548
  MIC Coagulase Negative Staphylococcus (GC 4548): 8 µg/mL (≈ 5.72 µM)
Staphylococcus sp.; strain GC 4549
  MIC Coagulase Negative Staphylococcus (GC 4549): 4 µg/mL (≈ 2.86 µM)
Staphylococcus sp.; strain GC 4551
  MIC Coagulase Negative Staphylococcus (GC 4551): 32 µg/mL (≈ 22.9 µM)
Staphylococcus sp.; strain GC 6257
  MIC Coagulase Negative Staphylococcus (GC 6257): 4 µg/mL (≈ 2.86 µM)
Staphylococcus sp.; strain SMITH GC 4543
  MIC Staphylococcus aureus-SMITH (GC 4543): 16 µg/mL (≈ 11.4 µM)
Enterococcus sp.; Enterococcus avium (GC 4558)
  MIC Enterococcus avium (GC 4558): 64 µg/mL (≈ 45.7 µM)
Enterococcus sp.; Enterococcus faecalis (ATCC 29212)
  MIC Enterococcus faecalis (ATCC 29212): >64 µg/mL
Enterococcus sp.; Enterococcus faecalis (GC 2242)
  MIC Enterococcus faecalis (GC 2242): 64 µg/mL (≈ 45.7 µM)
Enterococcus sp.; Enterococcus faecalis (GC 2691)
  MIC Enterococcus faecalis (GC 2691): >64 µg/mL
Enterococcus sp.; Enterococcus faecalis (GC 3059)
  MIC Enterococcus faecalis (GC 3059): >64 µg/mL
Enterococcus sp.; Enterococcus faecalis (GC 4552)
  MIC Enterococcus faecalis (GC 4552): >64 µg/mL
Enterococcus sp.; Enterococcus faecalis (GC 4553)
  MIC Enterococcus faecalis (GC 4553): >64 µg/mL
Enterococcus sp.; Enterococcus faecalis (GC 4554)
  MIC Enterococcus faecalis (GC 4554): >64 µg/mL
Enterococcus sp.; Enterococcus faecalis (GC 6189)
  MIC Enterococcus faecalis (GC 6189): 64 µg/mL (≈ 45.7 µM)
Enterococcus sp.; Enterococcus faecium (GC 2243)
  MIC Enterococcus faecium (GC 2243): >64 µg/mL
Enterococcus sp.; Enterococcus faecium (GC 4556)
  MIC Enterococcus faecium (GC 4556): 64 µg/mL (≈ 45.7 µM)
Enterococcus sp.; Enterococcus faecium (GC 4557)
  MIC Enterococcus faecium (GC 4557): 8 µg/mL (≈ 5.72 µM)
Enterococcus sp.; strain ATCC 29212
  MIC Enterococcus faecalis (ATCC 29212): >64 µg/mL
Enterococcus sp.; strain GC 2242
  MIC Enterococcus faecalis (GC 2242): 64 µg/mL (≈ 45.7 µM)
Enterococcus sp.; strain GC 2243
  MIC Enterococcus faecium (GC 2243): >64 µg/mL
Enterococcus sp.; strain GC 2691
  MIC Enterococcus faecalis (GC 2691): >64 µg/mL
Enterococcus sp.; strain GC 3059
  MIC Enterococcus faecalis (GC 3059): >64 µg/mL
Enterococcus sp.; strain GC 4552
  MIC Enterococcus faecalis (GC 4552): >64 µg/mL
Enterococcus sp.; strain GC 4553
  MIC Enterococcus faecalis (GC 4553): >64 µg/mL
Enterococcus sp.; strain GC 4554
  MIC Enterococcus faecalis (GC 4554): >64 µg/mL
Enterococcus sp.; strain GC 4556
  MIC Enterococcus faecium (GC 4556): 64 µg/mL (≈ 45.7 µM)
Enterococcus sp.; strain GC 4557
  MIC Enterococcus faecium (GC 4557): 8 µg/mL (≈ 5.72 µM)
Enterococcus sp.; strain GC 4558
  MIC Enterococcus avium (GC 4558): 64 µg/mL (≈ 45.7 µM)
Enterococcus sp.; strain GC 6189
  MIC Enterococcus faecalis (GC 6189): 64 µg/mL (≈ 45.7 µM)
Streptococcus sp.; Streptococcus agalactiae (GC 4564)
  MIC Streptococcus agalactiae (GC 4564): 8 µg/mL (≈ 5.72 µM)
Streptococcus sp.; Streptococcus pneumoniae (ATCC 6301)
  MIC Streptococcus pneumoniae (ATCC 6301): 2 µg/mL (≈ 1.43 µM)
Streptococcus sp.; Streptococcus pneumoniae (GC 1894)
  MIC Streptococcus pneumoniae (GC 1894): 1 µg/mL (≈ 0.715 µM)
Streptococcus sp.; Streptococcus pneumoniae (GC 4565)
  MIC Streptococcus pneumoniae (GC 4565): 4 µg/mL (≈ 2.86 µM)
Streptococcus sp.; Streptococcus pyogenes (GC 4563)
  MIC Streptococcus pyogenes (GC 4563): 8 µg/mL (≈ 5.72 µM)
Streptococcus sp.; strain ATCC 6301
  MIC Streptococcus pneumoniae (ATCC 6301): 2 µg/mL (≈ 1.43 µM)
Streptococcus sp.; strain GC 1894
  MIC Streptococcus pneumoniae (GC 1894): 1 µg/mL (≈ 0.715 µM)
Streptococcus sp.; strain GC 4563
  MIC Streptococcus pyogenes (GC 4563): 8 µg/mL (≈ 5.72 µM)
Streptococcus sp.; strain GC 4564
  MIC Streptococcus agalactiae (GC 4564): 8 µg/mL (≈ 5.72 µM)
Streptococcus sp.; strain GC 4565
  MIC Streptococcus pneumoniae (GC 4565): 4 µg/mL (≈ 2.86 µM)
Escherichia coli; strain ATCC 25922
  MIC Escherichia coli (ATCC 25922): >64 µg/mL
Escherichia coli; strain GC 4559
  MIC Escherichia coli (GC 4559): >64 µg/mL
Escherichia coli; strain GC 4560
  MIC Escherichia coli (GC 4560): 4 µg/mL (≈ 2.86 µM)
